Series [1] addresses T1, 5‐LO (Homo sapiens, UniProt P09917).
T1 sequence (P09917 1-674): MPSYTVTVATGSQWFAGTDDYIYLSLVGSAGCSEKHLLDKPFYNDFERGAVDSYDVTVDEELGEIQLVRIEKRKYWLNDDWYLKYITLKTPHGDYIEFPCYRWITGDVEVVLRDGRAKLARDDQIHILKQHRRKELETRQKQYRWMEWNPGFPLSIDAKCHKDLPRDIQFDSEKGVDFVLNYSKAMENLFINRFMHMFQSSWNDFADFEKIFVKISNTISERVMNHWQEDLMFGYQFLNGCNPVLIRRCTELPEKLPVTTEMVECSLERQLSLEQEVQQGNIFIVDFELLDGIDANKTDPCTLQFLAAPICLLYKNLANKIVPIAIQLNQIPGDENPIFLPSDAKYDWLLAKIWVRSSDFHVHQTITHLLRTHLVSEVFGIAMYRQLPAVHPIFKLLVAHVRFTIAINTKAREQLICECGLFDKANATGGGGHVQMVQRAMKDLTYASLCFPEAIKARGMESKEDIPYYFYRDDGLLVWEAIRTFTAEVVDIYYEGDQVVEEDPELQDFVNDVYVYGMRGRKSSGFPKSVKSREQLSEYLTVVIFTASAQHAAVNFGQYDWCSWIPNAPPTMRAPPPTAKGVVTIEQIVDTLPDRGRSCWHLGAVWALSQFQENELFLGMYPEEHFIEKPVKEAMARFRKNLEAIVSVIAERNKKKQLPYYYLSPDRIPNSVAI
The series is described as follows: Biosynthesis of 5‐LO products in thapsigargin‐stimulated human PMNL. Format: cell-based. Also on record: endogenous in cells; host or cells: human polymorphonuclear leukocytes isolated from heparinized blood. Conditions: for Inhibition of LT biosynthesis in human PMNL: 1 μmol/L, 5 min, 1 μmol/L thapsigargin 15 min; for IC50: 5‐LO product biosynthesis in human PMNL, mean (95% confidence interval). As for the experimental part:
Heparinized blood (see Ethics statement) was collected, centrifuged at 200g for 10 minutes to collect plasma, and erythrocytes were sedimented in dextran. PMNL were obtained after centrifugation on a lymphocyte separation medium cushion (density, 1.077 g/mL) (Wisent) at 900 g for 20 minutes, followed by hypotonic lysis to remove residual erythrocytes.33 PMNL were counted and resuspended at 10^7 cells/mL in HBSS supplemented with 1.6 mmol/L CaCl2 and 0.3 U/mL adenosine deaminase (Sigma‐Aldrich). PMNL were preincubated with the test compounds or their diluent (0.1% DMSO) for 5 minutes at 37°C and were then stimulated with 1 µmol/L thapsigargin (Sigma‐Aldrich) for 15 minutes at 37°C.27 Reactions were stopped by adding two volumes of CH3OH:CH3CN (1:1) containing the internal standard PGB2 (100 ng/mL), and samples were processed for RP‐HPLC analysis of 5‐LO products.
(A) The structures of CAPE (2) and its analogues investigated in this study. (B) Isolated human PMNL were incubated in presence of test compounds (1 μmol/L) or their diluent (Control, 0.1% DMSO) for 5 minutes. PMNL were stimulated with 1 μmol/L of thapsigargin for 15 minutes at 37°C. The stimulation was then stopped, and samples were processed for analysis of 5‐LO products using RP‐HPLC. Total 5‐LO products measured represent LTB4, its trans isomers, 20‐OH‐LTB4, 20‐COOH‐LTB4 and 5‐hydroxyeicosatetraenoic acid. Data are expressed as means ± SEM of at least three independent experiments. *Difference from control, as determined using one‐way ANOVA with Dunnett's multiple comparison test (P < .05)

Series [2] concerns HepaRG cells. Put plainly: Metabolite identification by LC‐MS/MS in HepaRG cell culture. The format is in vitro ADME, human. Conditions: 50 µmol/L, 7.5 and 60 minutes. As for the experimental part:
Differentiated HepaRG cells, plated in 24 well plates, were washed with hepatocyte suspension medium (Williams E‐medium without phenol red, supplemented with 2 mmol/L Glutamax and […] HEPES) before addition of hepatocyte suspension medium (250 µL/well) containing (30 or 50 µmol/L) of the test compounds or their diluent. Cells were then incubated for 7.5, 15, 30, 60 or 90 minutes at 37°C after which the medium was removed.
In other experiments, LC‐MS/MS analysis was performed to identify metabolites of test compounds that had been incubated with HepaRG cells. First, fifty micromolar standards of the test compounds were diluted 3000‐fold and analyzed using electrospray ionization mass spectrometry on a linear quadrupole ion trap (LTQ‐XL) from Thermo‐Fisher Scientific (San Jose). Full scan spectra were collected using both ionization polarities for confirmation of the intact molecular weight of each compounds based on the expected [M + H]^+ and [M−H]^− pseudo‐molecular ions observed using mass spectrometry. The diluted standards were then subjected to reversed‐phase partition chromatography on an Altima C18 column produced by HiChrom and distributed by VWR (Mississsauga, ON). The LC system was a Dionex Ultimate 3000. The mass spectrometer electrospray source was used at 40 µL/min with a nitrogen sheath gas of 15, a spray voltage of ±4 kV, a capillary voltage of ±35 V, a tube lens of ±175 V and a capillary temperature of 160°C. Samples that had been collected from HepaRG cultures were purified on C18 cartridges and eluted with CH3OH. For the first injection of extracted samples, the MS method consisted of a repeated loop of full scan (m/z 100‐800), product ion scan based on the intact mass determined from infusion of the standards and one product ion scan. […]
Figure 7 Metabolite identification using negative ion LC‐MS/MS in HepaRG cell culture. […] Right panels show the MS and MS/MS of the generated metabolites detected at 60 minutes. […]

SMILES strings stand for the structures.

For `COc1cc(/C=C/C(=O)CCc2ccccc2)cc(OC)c1O` [compound 10, sinapic acid phenethyl ketone], in series [1], the “Inhibition of LT biosynthesis in human PMNL” value (shortened to “Inhibition of LT biosynthesis”) is “near complete inhibition” and the half-maximal inhibitory concentration (IC50) (usually the concentration that inhibits the measured activity by half) came out at 410 nM. Besides, in series [2], the “Metabolites formed in HepaRG cell culture” value (shortened to “Metabolites formed”) is recorded as “α,β‐unsaturated ketone reduction”.
As to `O=C(/C=C/c1cc(O)ccc1O)OCCc1ccccc1` [compound 5], in series [1], the “Inhibition of LT biosynthesis” value is recorded as “near complete inhibition” and half-maximal inhibition (IC50) required 320 nM.
On to `O=C(/C=C/c1ccc(O)c(O)c1)CCCc1ccccc1` [compound 7], for which, in series [1], the “Inhibition of LT biosynthesis” value is given as “near complete inhibition” and 520 nM corresponded to half-maximal inhibition (IC50). In addition, in series [2], the “Metabolites formed” value was “α,β‐unsaturated ketone reduction”.
In the case of `O=C(/C=C/c1cc(O)ccc1O)CCc1ccccc1` [compound 8], the IC50 in series [1] amounted to 510 nM. The “Metabolites formed” value in series [2] was “α,β‐unsaturated ketone reduction”.
In series [1], `O=C(/C=C/c1ccc(O)c(O)c1)OCCc1ccccc1` [CAPE (2), caffeic acid phenethyl ester, reference compound] yielded an IC50 of 970 nM.

For the origin of these results see paper PMC6743424, “Phenolic acid phenethylesters and their corresponding ketones: Inhibition of 5‐lipoxygenase and stability in human blood and HepaRG cells” (Pharmacology Research & Perspectives, 2019).
